Assay results reported in patent US9657024B2, “Substituted triazolo-pyrimidine compounds for modulating cell proliferation, differentiation and survival” (STATegics, Inc., priority 2012, dated 2017).

Legend:
[1] = tested on: primary dopaminergic neurons; test: Protection of primary dopaminergic neurons from 6-OHDA (THir neurons); format: cell-based, rat; conditions: 6.25 uM 6-OHDA 40 minute
Method: Dissociated embryonic D14 rat ventral mesencephalic cells were used.
Dopaminergic neurons play a key role in the pathogenesis of Parkinson's disease and compounds enhancing survival of these cells have significant therapeutic potential. Dissociated embryonic D14 rat ventral mesencephalic cells were used to test the potential of EPO mimetic compounds to protect primary dopaminergic neurons. […] The cells were plated in 48-well poly-D-lysine coated plates using a microisland technique. The microislands were seeded into dry plates in 10 uL aliquots of 3000 cells/uL and incubated at 37° C. for 1 h to allow for adhesion. […] On day 3, the medium was replaced with 6.25 uM 6-hydroxydopamine (6-OHDA, Sigma) for a 40 minute incubation. The toxin was then removed and the cells were cultured for an additional 2 days. On day 5, the cells were fixed, permeabilized and stained for tyrosine hydroxylase-immunoreactive (THir) neurons.

PC12 cells = test: PC12 cell survival under serum deprivation (CellTiter-Glo); format: cell-based, rat; conditions: 72 hours; for minimal effective concentration: Rattus norvegicus, PC-12, NS = RLU increased <25% at 5 uM, read-out: PC12 cell proliferation (CellTiter-Glo ®) Concentration at which RLU increased >25% compared to medium control
Method: Each culture condition was performed in quadruplicate in each experiment and the mean values were calculated. The results represent mean±SEM of relative light unit values when compared to the mean values obtained in the presence of the medium alone. A total of 13 experiments were performed and the statistical significance was analyzed using GraphPad Prism software using ANOVA, followed by paired t-test. The symbol * indicates P-values<0.01.
PC12 cells were cultured in DMEM supplemented with 10% fetal calf serum and 5% horse serum. […] Cell viability was analyzed by CellTiter-Glo® reagent (Promega).
PC12 cells were cultured in DMEM supplemented with 10% fetal calf serum and 5% horse serum. […] Cell survival of the serum-starved cells was analyzed by CellTiter-Glo® reagent luminescence reading.
FIG. 2 illustrates neuroprotective effects of Compounds 1-5 when tested in PC12 cell protection assays. PC12 cells were subjected to serum deprivation as described under FIG. 1.
PC12 cells were cultured in DMEM supplemented with 10% fetal calf serum and 5% horse serum. […] Cell survival of the serum-starved cells was analyzed by CellTiter-Glo® reagent luminescence reading (relative light units, “RLU”). […] “NS” indicates RLU increased <25% when compounds were tested at 5 uM.

[2] = tested on: human CD34+ hematopoietic stem cells; test: Proliferation of human CD34+ cells (ATP, CellTiterGlo); format: cell-based; conditions: eight days in culture
Method: (§1) Compound 10 was tested at different concentrations for its ability to induce proliferation and differentiation of human CD34+ hematopoietic stem cells. Human CD34+ cells were purified by (FIG. 6A) immunomagnetic beads (>90% purity, purchased from Stem Cell Technologies) or (FIG. 6B) cell sorting (at Blood Systems Research Institute) and the cells were cultured in the presence of compounds for eight (FIG. 6A) or eleven (FIG. 6B) days. (FIG. 6A) The level of cell growth and survival was measured based on ATP levels (CellTiterGlo reagent), or (FIG. 6B) the expression level of CD235a was analyzed by flow cytometry as a marker for cell maturation. Cell survival was analyzed using the CellTiterGlo reagent to measure ATP levels as a marker of metabolically active cells that have not undergone apoptosis, and expression of CD235a as a marker of erythroid cell differentiation and as a specific marker for EPO-like erythropoietic activity.

[3] = tested on: human CD34+ hematopoietic stem cells; test: Erythroid differentiation of human CD34+ cells (CD235a, flow cytometry); format: cell-based; conditions: eleven days in culture
Method: as §1

EPO receptor [4] = biological target: T1, EPO receptor (Homo sapiens, UniProt P19235); test: EPO receptor phosphorylation in TF-1 cells (phospho-EPOR ELISA); format: cell-based; parameters: endogenous in cells; host or cells: TF-1 human erythroleukemia cell line; conditions: TF-1, 10 min
T1 sequence (P19235 25-508): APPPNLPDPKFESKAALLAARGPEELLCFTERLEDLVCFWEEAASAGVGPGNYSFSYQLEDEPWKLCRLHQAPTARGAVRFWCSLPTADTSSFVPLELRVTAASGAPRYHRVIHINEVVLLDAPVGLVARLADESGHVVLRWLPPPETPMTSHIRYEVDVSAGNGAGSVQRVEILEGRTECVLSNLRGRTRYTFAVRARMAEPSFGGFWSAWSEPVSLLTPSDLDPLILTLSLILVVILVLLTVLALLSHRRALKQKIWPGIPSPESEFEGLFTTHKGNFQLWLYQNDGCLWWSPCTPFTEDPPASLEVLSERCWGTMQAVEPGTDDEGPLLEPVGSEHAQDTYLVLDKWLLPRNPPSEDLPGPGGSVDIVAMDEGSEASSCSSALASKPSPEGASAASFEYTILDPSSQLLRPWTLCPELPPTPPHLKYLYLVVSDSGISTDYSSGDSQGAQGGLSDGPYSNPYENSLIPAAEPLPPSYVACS
Method: (§2) Primary micro-dissected fetal brain tissue was obtained from a commercial source (Advanced Bioscience Resources, Inc., Alameda, Calif.). Cultured primary human fetal neural cells (3 h, 1 day, 17 days, or 26 days in culture) were incubated with Compound 5, Compound 6, or controls for 10 min (FIG. 5A). Phospho-EPOR was detected by ELISA (R&D Systems). […] Human erythropoietic cell line TF-1 was cultured for 10 min in the presence of Compound 5, Compound 6, or the controls, and phospho-EPOR was detected by ELISA (R&D Systems). The data represent mean+SEM of triplicate cultures.

TF-1 cells = test: TF-1 cell proliferation; format: cell-based, human; conditions: at concentrations that provided significant neuroprotective effects
frataxin [5] = test: Frataxin protein levels in primary human fetal neurons (ELISA); format: cell-based; conditions: 28 days in culture, 24 h, relative to total protein
Method: The effects of the compounds on frataxin protein levels in cells were analyzed. […] Embryonic mouse cell line P19 was differentiated into neuronal cells in the presence of retinoic acid and frataxin levels were measured (FIG. 4A). Frataxin levels were measured after 24 h by multi-species frataxin-ELISA (MitoSciences) and compared to total protein levels. The data represent mean+SEM. Primary human fetal neurons (28 days in culture) were also incubated for 24 h in the presence of the compounds, and human frataxin levels were measured by ELISA (MitoSciences) and compared to total protein levels (FIG. 4B). The data represent mean+SEM of triplicate measurements. Compounds were also tested for their effects on frataxin levels in cells derived from patients with FRDA. Cultures of patient peripheral blood mononuclear cells (PBMCs) were also used to test the EPO mimetic compounds for frataxin enhancement in frataxin-deficient cells. Compound 1 and Compounds 5-6 enhanced frataxin levels in these patient cells at concentration 1 uM or lower.

rats = test: Kidney and CNS protection in rats with DMA + Cremophor EL toxicity; format: in vivo, rat; conditions: DMA + CrEL 2.5 mL/kg each, IP
Method: High-dose N,N-dimethylacetamide (DMA)+ Cremophor EL (CrEL) (2.5 mL/kg each, IP) was used to induce acute CNS and organ toxicity, and the potential of Compound 5 to protect the rats was studied.

EPO receptor [6] = biological target: T1, EPO receptor; test: EPO receptor phosphorylation in primary human fetal neural cells (phospho-EPOR ELISA); format: cell-based; parameters: endogenous in cells; host or cells: primary human fetal neural cells from micro-dissected fetal brain tissue (Advanced Bioscience Resources, Inc.); conditions: 10 min incubation; for level of EPO receptor activation compared with recombinant human EPO: EPO 10 IU/ml
Method: as §2, with “cultures. […] The receptor activation results were consistent with functional cell based assays using primary human CD34+ bone marrow progenitor cells and erythroleukemia cell line TF-1.” for “cultures.”

[7] = following intravenous administration; cited from earlier work
frataxin [8] = conditions: 8 FRDA patients, open label pilot trial; cited from earlier work
frataxin [9] = conditions: patients with chronic kidney disease, rhEPO infusion for anemia; cited from earlier work

## Cc1cc(C)n2nc(SCCOc3ccc(Cl)cc3)nc2n1 [Example 1, 2-{[2-(4-chlorophenoxy)ethyl]sulfanyl}-5,7-dimethyl-[1,2,4]triazolo[1,5-a]pyrimidine]
[1]; 1 uM
  protection of dopaminergic neurons from 6-OHDA toxicity: significantly protected
PC12 cells; compound at 1 uM, serum-free
  effect on PC12 cell viability compared with rhEPO: at least a comparable effect on cell viability as rhEPO
PC12 cells; compound at 5 uM, serum-free
  level of PC12 cell protection compared with rhEPO at 10 U/ml: even higher level of protection than rhEPO
PC12 cells; serum-free conditions
  concentration at which significant protective effect on PC12 cells was observed: 1 µM

## Cc1cc(C)n2nc(SCCOc3ccc(F)c(Cl)c3)nc2n1 [Example 6, 2-{[2-(3-chloro-4-fluorophenoxy)ethyl]sulfanyl}-5,7-dimethyl-[1,2,4]triazolo[1,5-a]pyrimidine]
PC12 cells; serum-free conditions
  minimal effective concentration: < 5 µM

## COc1ccc(NC(=O)CSc2nc3nc(C)cc(C)n3n2)cc1 [Example 10, 2-({5,7-dimethyl-[1,2,4]triazolo[1,5-a]pyrimidin-2-yl}sulfanyl)-N-(4-methoxyphenyl)acetamide]
[2]
  CD34+ progenitor cell proliferation (ATP levels): dose-dependent induction of CD34+ progenitor cell proliferation
[3]
  erythroid differentiation (CD235a expression): differentiation into erythroid cells expressing CD235a

## Cc1cc(C)n2nc(OCCOc3ccc(Cl)cc3)nc2n1 [Example 11, 2-[2-(4-chlorophenoxy)ethoxy]-5,7-dimethyl-[1,2,4]triazolo[1,5-a]pyrimidine]
EPO receptor [4]
  EPO receptor activation (phospho-EPOR): did not activate EPO receptor
TF-1 cells
  proliferation of TF-1 cells: did not induce proliferation of TF-1 cells
Frataxin [5]
  frataxin protein levels: increased frataxin protein levels
rats
  kidney-protective effect (hypoproteinemia in serum): reduced hypoproteinemia in serum
  response to formalin injection: normalized the response of the rats to formalin injection
EPO receptor [6]
  EPO receptor phosphorylation: increased EPO receptor phosphorylation in a dose-dependent manner
  level of EPO receptor activation compared with recombinant human EPO: comparable to that induced by recombinant human EPO

## Cc1cc(C)n2nc(OCCN(CCO)c3ccccc3)nc2n1 [Example 13, 2-{[2-({5,7-Dimethyl-[1,2,4]triazolo[1,5-a]pyrimidin-2-yl}oxy)ethyl](phenyl)amino}ethan-1-ol]
EPO receptor [4]
  EPO receptor activation (phospho-EPOR): did not activate EPO receptor
TF-1 cells
  proliferation of TF-1 cells: did not induce proliferation of TF-1 cells
Frataxin [5]
  frataxin protein levels: increased frataxin protein levels
EPO receptor [6]
  EPO receptor phosphorylation: increased EPO receptor phosphorylation in a dose-dependent manner
  level of EPO receptor activation compared with recombinant human EPO: comparable to that induced by recombinant human EPO

## CCc1cc(CC)n2nc(CCCOc3ccc(Cl)cc3)nc2n1 [Example 28, 2-[3-(4-chlorophenoxy)propyl]-5,7-diethyl-[1,2,4]triazolo[1,5-a]pyrimidine]
PC12 cells; serum-free conditions
  minimal effective concentration: < 5 µM

## rhEPO: recombinant human (rh)EPO, erythropoietin; positive control
[1]; 10 IU/ml
  protection of dopaminergic neurons from 6-OHDA toxicity: significantly protected
[7]
  concentration in human cerebrospinal fluid lower than in circulation: more than 1000 fold
Frataxin [8]
  overall increase in frataxin in lymphocytes: 24%
Frataxin [9]
  increase in frataxin levels in peripheral blood mononuclear cells: 2-3 fold
